Experimental data reported in publication PMC6470953, “Symmetrical Modification of Minimized Dermaseptins to Extend the Spectrum of Antimicrobials with Endotoxin Neutralization Potency” (International Journal of Molecular Sciences, 2019).
Read-outs that look alike come from different tables or passages of the source. Where no end group is shown, it is not given here.

Key:
[1] = system: E. coli ATCC25922; assay: MIC assay, E. coli ATCC25922; format: cell-based; conditions: two-fold dilution in 96-well plates, MHB, 2-7 × 10^5 CFU/mL, 18–24 h, 37 °C, three replicates on at least two occasions
Method: (§1) MIC measurements were performed in 96-well plates. The peptides were dissolved in 0.2% bovine serum albumin and 0.01% acetic acid, and an appropriate broth was subjected to a series of two-fold dilutions. The final concentration of microbial suspensions was from 2 × 10^5 to 7 × 10^5 colony forming units (CFU)∙mL^−1. Key parameters were volume (50 μL bacterial suspension + 50 μL peptide solution), incubating time (18–24 h), and temperature (37 °C). Each test was performed in three replicates on at least two independent occasions. The Mueller Hilton broth (MHB) (AoBoX, Shanghai, China) without or with microbial cells was regarded as the negative control or positive control, respectively. MICs were recorded at the lowest peptide concentration without visible turbidity and spectrophotometrically by measuring the optical density (OD) at 492 nm (Tecan, Salzburg, Austria).

[2] = system: E. coli UB1005; assay: MIC assay, E. coli UB1005; format: cell-based; conditions: two-fold dilution in 96-well plates, MHB, 2-7 × 10^5 CFU/mL, 18–24 h, 37 °C
Method: as §1

[3] = system: P. aeruginosa ATCC 27853; assay: MIC assay, P. aeruginosa ATCC 27853; format: cell-based; conditions: two-fold dilution in 96-well plates, MHB, 2-7 × 10^5 CFU/mL, 18–24 h, 37 °C
Method: as §1

[4] = system: S. typhimurium ATCC 14028; assay: MIC assay, S. typhimurium ATCC 14028; format: cell-based; conditions: two-fold dilution in 96-well plates, MHB, 2-7 × 10^5 CFU/mL, 18–24 h, 37 °C
Method: as §1

[5] = system: S. pullorum C79-13; assay: MIC assay, S. pullorum C79-13; format: cell-based; conditions: two-fold dilution in 96-well plates, MHB, 2-7 × 10^5 CFU/mL, 18–24 h, 37 °C
Method: as §1

[6] = system: S. aureus ATCC 29213; assay: MIC assay, S. aureus ATCC 29213; format: cell-based; conditions: two-fold dilution in 96-well plates, MHB, 2-7 × 10^5 CFU/mL, 18–24 h, 37 °C
Method: as §1

[7] = system: S. epidermidis ATCC 12228; assay: MIC assay, S. epidermidis ATCC 12228; format: cell-based; conditions: two-fold dilution in 96-well plates, MHB, 2-7 × 10^5 CFU/mL, 18–24 h, 37 °C
Method: as §1

[8] = system: S. faecalis ATCC 29212; assay: MIC assay, S. faecalis ATCC 29212; format: cell-based; conditions: two-fold dilution in 96-well plates, MHB, 2-7 × 10^5 CFU/mL, 18–24 h, 37 °C
Method: as §1

[9] = system: B. subtilis CMCC 63501; assay: MIC assay, B. subtilis CMCC 63501; format: cell-based; conditions: two-fold dilution in 96-well plates, MHB, 2-7 × 10^5 CFU/mL, 18–24 h, 37 °C
Method: as §1

[10] = system: human red blood cells (hRBCs); assay: Hemolytic activity assay; format: cell-based; conditions: lowest peptide concentration that induces 5% hemolysis; hRBCs in PBS pH 7.4, 1 h, 37 °C, OD570
Method: Hemolytic activity measurements were performed to evaluate the effect of peptides on hemoglobin release levels by erythrocyte lysis. The experimental protocol was reviewed and approved by the ethics committee of the Northeast Agricultural University Hospital, and the experimental method was carried out in accordance with the approved guidelines and regulations. A total of 1 mL of fresh hRBCs was collected and diluted 10-fold with PBS (pH 7.4). A quantity of 50 μL of the hRBCs solution was incubated with 50 μL of serially diluted peptides dissolved in PBS for 1 h at 37 °C. hRBC suspension treated with 0.1% Triton X-100 was employed as a positive control and an untreated hRBC suspension was used as a negative control. A total of 50 μL of the supernatant was collected from the mixture after centrifugation (1000g, 5 min, 4 °C) and transferred to a new 96-well microplate. The percent hemolysis was calculated using the following equation: Hemolysis (%) = [(OD570 of the treated sample — OD570 of the negative control)/(OD570 of the positive control — OD570 of the negative control)] × 100%.

[11] = system: murine macrophage cell line (RAW264.7); assay: MTT cytotoxicity assay, RAW264.7; format: cell-based; conditions: RAW264.7, peptide 64 μM, 18–24 h, 37 °C, OD 570 nm, n = 3
Method: (§2) The Roswell Park Memorial Institute-1640 (RPMI-1640) (Invitrogen, Carlsbad, CA, USA) and Dulbecco’s modified Eagle’s medium-high glucose (DMEM) (Gibco, China) were supplemented with 100 μg∙mL^−1 streptomycin sulfate, 100 U∙mL^−1 penicillin, and 10% (v/v) fetal bovine serum (Hyclone, Logan, UT, USA). These were used to culture the RAW264.7 and HEK293T cells, respectively. The peptides were added to cell cultures (1.0–2.0 × 10^4 cells/well) at different final concentrations (1–64 µM) in 96-well plates for 18–24 h at 37 °C in 5% CO2, and 3-(4,5-dimethylthiazol-2-yl)-2,5-diphenyltetrazolium bromide (MTT) (50 µL, 0.5 mg∙mL^−1) was injected and incubated with cell cultures for 4 h at 37 °C. Finally, the centrifuged cells without the supernatants were mixed with 150 µL of dimethyl sulfoxide to dissolve the formazan crystals that formed. The optical density (OD) was recorded by a microplate reader (Tecan, Salzburg, Austria) at 570 nm.

[12] = system: human embryonic kidney cells (HEK293T); assay: MTT cytotoxicity assay, HEK293T; format: cell-based; conditions: peptide 64 μM, 18–24 h, 37 °C, OD 570 nm, n = 3
Method: as §2

[13] = system: B. subtilis CMCC 63501; conditions: cited from earlier work
Source text: (§3) Table 2 MICs and therapeutic index of the peptides. | column: KL4A6 [9]

[14] = system: E. coli ATCC25922; conditions: cited from earlier work
Source text: as §3

[15] = system: E. coli UB1005; conditions: cited from earlier work
Source text: as §3

[16] = system: Gram-negative and Gram-positive bacteria; conditions: MIC >128 μM counted as 256 μM; cited from earlier work
Source text: as §3

[17] = system: P. aeruginosa ATCC 27853; conditions: cited from earlier work
Source text: as §3

[18] = system: S. aureus ATCC 29213; conditions: cited from earlier work
Source text: as §3

[19] = system: S. epidermidis ATCC 12228; conditions: cited from earlier work
Source text: as §3

[20] = system: S. faecalis ATCC 29212; conditions: cited from earlier work
Source text: as §3

[21] = system: S. pullorum C79-13; conditions: cited from earlier work
Source text: as §3

[22] = system: S. typhimurium ATCC 14028; conditions: cited from earlier work
Source text: as §3

[23] = system: human red blood cells (hRBCs); conditions: lowest peptide concentration that induces 5% hemolysis; cited from earlier work
Source text: as §3

Substance | MIC [1] [µM] | MIC [2] [µM] | MIC [3] [µM] | MIC [4] [µM] | MIC [5] [µM] | MIC [6] [µM] | MIC [7] [µM] | MIC [8] [µM] | MIC [9] [µM] | MHC5 (minimum hemolysis concentration 5%) [10] [µM] | cell survival rate [11] [%] | cell survival rate [12] [%] | other results
WVKAAAKAAAKVW-NH2 [WV] | 32 | >128 | >128 | >128 | 64 | >128 | >128 | 64 | >128 | >256 | 93 | 93 | –
WIKAAAKAAAKIW-NH2 [WI] | 8 | 8 | 32 | 32 | 8 | 32 | 32 | 32 | 8 | 256 | 100 | 96 | –
LLKAAAKAAAKLL-NH2 [KL4A6] | – | – | – | – | – | – | – | – | – | – | – | – | MIC [13]: 32 µM; MIC [14]: 2 µM; MIC [15]: 32 µM; GM (geometric mean of MIC values) [16]: 59.3 µM; MIC [17]: >128 µM; MIC [18]: >128 µM; MIC [19]: 128 µM; MIC [20]: 16 µM; MIC [21]: >128 µM; MIC [22]: 128 µM; MHC5 (minimum hemolysis concentration 5%) [23]: >256 µM
